{
  "source": "patent US20260263374A1",
  "about": "“COMPOSITIONS OF NANOPARTICLES FOR TREATMENT OF NEUROPATHIC PAIN” (NANOBIOTIX S.A., priority 2022, published 2026)",
  "type_in_all_cases": "in vivo, Sprague-Dawley rats",
  "key": {"[1]": {"test_system": "oxaliplatin-induced mechanical allodynia", "test": "CIPN model (Example 6): dose effect, paw withdrawal threshold with von Frey filaments, left (treated) vs right (vehicle) paw", "conditions": "30 mg/kg p.o. each day of von Frey testing; on any of the test days", "from_the_text": "Animals were allowed to recover from transportation for at least one week before commencing experiments.\nData is presented as mean±SEM."}, "[2]": {"test_system": "oxaliplatin-induced mechanical allodynia", "test": "CIPN model (Example 5): mechanical allodynia, paw withdrawal threshold with von Frey filaments after oxaliplatin", "conditions": "rat, oxaliplatin 10 mg/kg i.p.; 30 mg/kg p.o. each day of von Frey testing, tested 2 hr post dose", "method": "The aim of this study was to investigate the effect of a single intraplantar treatment with Nanoparticles from Example 1 (NP1B) at the dose of 11 g/L, Nanoparticles from Example 2 (NP2B) at 53 g/L, Nanoparticles from Example 3 (NP20B) at 57 g/L, and Nanoparticles from Example 4 (NP20A) at 59 g/L, each in 20 μL of injection volume, on the mechanical allodynia (as assessed using von Frey) that occurs following systemic administration of oxaliplatin in the rat.\nExperimental subjects: Seventy-two (72) adult male Sprague-Dawley rats were used for this study. […]\nStatic mechanical (tactile) allodynia evaluation: Measurement of paw withdrawal threshold (PWT) was achieved using calibrated (force; g) von-Frey monofilaments (Touch-Test Sensory Evaluator; Scientific Marketing Associates) applied to the plantar surface of the hind paw. Withdrawal threshold was determined by increasing and decreasing stimulus intensity and estimated using Dixon's up-down method. […]\nBaseline readings for latency to withdrawal (sec) were assessed on three consecutive days (Day −3, Day −2 and Day −1). […]\nMechanical allodynia was subsequently re-assessed 2-3 times per week following injection, out to D26 post-oxaliplatin. […]"}, "[3]": {"test_system": "STZ-induced mechanical allodynia", "test": "STZ-induced diabetic neuropathic pain study (Example 7): paw withdrawal threshold with von Frey filaments", "conditions": "30 mg/kg p.o. 2 hr prior to each von Frey test"}},
  "data": [
    {"smiles": "CC(C)C[C@H](CN)CC(=O)O", "note": "[Pregabalin]", "values": [
      {"measurement": "PWT levels (both paws) compared to ‘Vehicle/Vehicle’ group (not neuropathic)", "setting": "[1]", "value": "not significantly different from the ‘Vehicle/Vehicle’ group"},
      {"measurement": "PWT, allodynic response (positive control)", "setting": "[2]", "value": "rescued the allodynic response and recovered the PWT to the healthy baseline levels"},
      {"measurement": "PWT levels compared to ‘STZ/Vehicle’ group", "setting": "[3]", "value": "significantly different from the ‘STZ/Vehicle’ group on all days tested"}
    ]}
  ]
}
